# Experimental data as given in PubChem BioAssay (NCI).
#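 In this assay, cells in 96-well plates receive the compound at five concentrations for 48 hours. Endpoints are linearly interpolated between the surrounding concentrations. TGI marks complete inhibition of growth.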
# Legend:
# Assay in all cases: growth of human tumour cells (NCI), 48 h
# 786-0 renal = test system: 786-0 renal
# A498 renal = test system: A498 renal
# A549 NSCLC = test system: A549 NSCLC
# ACHN renal = test system: ACHN renal
# BT-549 breast = test system: BT-549 breast
# CAKI-1 renal = test system: CAKI-1 renal
# CCRF-CEM leukemia = test system: CCRF-CEM leukemia
# COLO 205 colon = test system: COLO 205 colon
# DU-145 prostate = test system: DU-145 prostate
# EKVX NSCLC = test system: EKVX NSCLC
# HCC-2998 colon = test system: HCC-2998 colon
# HCT-116 colon = test system: HCT-116 colon
# HCT-15 colon = test system: HCT-15 colon
# HL-60(TB) leukemia = test system: HL-60(TB) leukemia
# HOP-62 NSCLC = test system: HOP-62 NSCLC
# HOP-92 NSCLC = test system: HOP-92 NSCLC
# HS 578T breast = test system: HS 578T breast
# HT29 colon = test system: HT29 colon
# K-562 leukemia = test system: K-562 leukemia
# KM12 colon = test system: KM12 colon
# LOX IMVI melanoma = test system: LOX IMVI melanoma
# M14 melanoma = test system: M14 melanoma
# MALME-3M melanoma = test system: MALME-3M melanoma
# MCF7 breast = test system: MCF7 breast
# MDA-MB-231 breast = test system: MDA-MB-231 breast
# MDA-MB-435 = test system: MDA-MB-435
# MDA-N = test system: MDA-N
# MOLT-4 leukemia = test system: MOLT-4 leukemia
# NCI-H226 lung = test system: NCI-H226 lung
# NCI-H23 lung = test system: NCI-H23 lung
# NCI-H460 lung = test system: NCI-H460 lung
# NCI-H522 lung = test system: NCI-H522 lung
# NCI/ADR-RES ovarian = test system: NCI/ADR-RES ovarian
# OVCAR-3 ovarian = test system: OVCAR-3 ovarian
# OVCAR-4 ovarian = test system: OVCAR-4 ovarian
# OVCAR-5 ovarian = test system: OVCAR-5 ovarian
# OVCAR-8 ovarian = test system: OVCAR-8 ovarian
# PC-3 prostate = test system: PC-3 prostate
# SF-268 CNS = test system: SF-268 CNS
# SF-295 CNS = test system: SF-295 CNS
# SF-539 CNS = test system: SF-539 CNS
# SK-MEL-2 melanoma = test system: SK-MEL-2 melanoma
# SK-MEL-28 melanoma = test system: SK-MEL-28 melanoma
# SK-MEL-5 melanoma = test system: SK-MEL-5 melanoma
# SK-OV-3 ovarian = test system: SK-OV-3 ovarian
# SN12C renal = test system: SN12C renal
# SNB-19 CNS = test system: SNB-19 CNS
# SNB-75 CNS = test system: SNB-75 CNS
# SR leukemia = test system: SR leukemia
# SW-620 colon = test system: SW-620 colon
# T-47D breast = test system: T-47D breast
# TK-10 renal = test system: TK-10 renal
# U251 CNS = test system: U251 CNS
# UACC-257 melanoma = test system: UACC-257 melanoma
# UACC-62 melanoma = test system: UACC-62 melanoma
# UO-31 renal = test system: UO-31 renal
smiles,measurement,setting,value
COc1ccc(C(=O)N(C(=O)N2CCN(c3ccccc3)CC2)S(=O)(=O)c2ccccc2)cc1,TGI,786-0 renal,90.5 µM
same,TGI,A498 renal,> 100 µM
same,TGI,A549 NSCLC,88.8 µM
same,TGI,ACHN renal,35.2 µM
same,TGI,BT-549 breast,> 100 µM
same,TGI,CAKI-1 renal,54.2 µM
same,TGI,CCRF-CEM leukemia,> 100 µM
same,TGI,COLO 205 colon,31.8 µM
same,TGI,DU-145 prostate,72.2 µM
same,TGI,EKVX NSCLC,50.4 µM
same,TGI,HCC-2998 colon,> 100 µM
same,TGI,HCT-116 colon,42.1 µM
same,TGI,HCT-15 colon,> 100 µM
same,TGI,HL-60(TB) leukemia,48.9 µM
same,TGI,HOP-62 NSCLC,> 100 µM
same,TGI,HOP-92 NSCLC,72.3 µM
same,TGI,HS 578T breast,79.5 µM
same,TGI,HT29 colon,> 100 µM
same,TGI,K-562 leukemia,94.4 µM
same,TGI,KM12 colon,> 100 µM
same,TGI,LOX IMVI melanoma,38 µM
same,TGI,M14 melanoma,42.6 µM
same,TGI,MALME-3M melanoma,93.4 µM
same,TGI,MCF7 breast,> 100 µM
same,TGI,MDA-MB-231 breast,81.9 µM
same,TGI,MDA-MB-435,> 100 µM
same,TGI,MDA-N,65.4 µM
same,TGI,MOLT-4 leukemia,46.5 µM
same,TGI,NCI-H226 lung,58.8 µM
same,TGI,NCI-H23 lung,73.2 µM
same,TGI,NCI-H460 lung,> 100 µM
same,TGI,NCI-H522 lung,33.3 µM
same,TGI,NCI/ADR-RES ovarian,66.7 µM
same,TGI,OVCAR-3 ovarian,> 100 µM
same,TGI,OVCAR-4 ovarian,> 100 µM
same,TGI,OVCAR-5 ovarian,70.8 µM
same,TGI,OVCAR-8 ovarian,53.5 µM
same,TGI,PC-3 prostate,> 100 µM
same,TGI,SF-268 CNS,> 100 µM
same,TGI,SF-295 CNS,> 100 µM
same,TGI,SF-539 CNS,35.9 µM
same,TGI,SK-MEL-2 melanoma,35 µM
same,TGI,SK-MEL-28 melanoma,> 100 µM
same,TGI,SK-MEL-5 melanoma,28 µM
same,TGI,SK-OV-3 ovarian,> 100 µM
same,TGI,SN12C renal,55.9 µM
same,TGI,SNB-19 CNS,74.9 µM
same,TGI,SNB-75 CNS,63.8 µM
same,TGI,SR leukemia,42.8 µM
same,TGI,SW-620 colon,> 100 µM
same,TGI,T-47D breast,54 µM
same,TGI,TK-10 renal,> 100 µM
same,TGI,U251 CNS,35.3 µM
same,TGI,UACC-257 melanoma,> 100 µM
same,TGI,UACC-62 melanoma,39.6 µM
same,TGI,UO-31 renal,26.7 µM
